Laboratory results: patent US20230174571A1, “METHOD OF TREATING SHIP1-MEDIATED DISEASES USING PELOROL DERIVATIVES” (Zebrapeutics Inc., priority 2020, published 2023)

What was measured:
PAC1 = target: T1, PAC1 (Mus musculus, UniProt Q9ES52); experiment: Small angle X-ray scattering of PAC1; settings: 190 μM PAC1 with 570 μM compound
T1 construct: PAC1 and PAC2 consists of phosphatase and C2 domain (residues aa 402-861 and aa 402-857 respectively); HMT-tag (His6-MBP-TEV site) (N); made in house; host or cells: E. coli
T1 sequence (Q9ES52 402-861): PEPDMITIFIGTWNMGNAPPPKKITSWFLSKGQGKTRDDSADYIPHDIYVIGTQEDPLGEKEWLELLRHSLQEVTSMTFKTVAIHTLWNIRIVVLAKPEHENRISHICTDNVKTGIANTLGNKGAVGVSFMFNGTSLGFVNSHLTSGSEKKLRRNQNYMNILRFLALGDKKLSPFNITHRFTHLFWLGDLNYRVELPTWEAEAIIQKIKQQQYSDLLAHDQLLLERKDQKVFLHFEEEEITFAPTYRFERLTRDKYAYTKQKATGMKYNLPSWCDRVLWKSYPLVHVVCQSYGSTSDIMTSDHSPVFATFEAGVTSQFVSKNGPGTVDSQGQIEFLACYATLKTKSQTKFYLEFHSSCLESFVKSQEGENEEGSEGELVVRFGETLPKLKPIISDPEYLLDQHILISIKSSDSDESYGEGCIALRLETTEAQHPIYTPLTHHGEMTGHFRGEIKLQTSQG
Description: Small angle X-ray scattering. PAC1 samples in 190 μM in 50 mM TrisHCl (pH7.4) 150 mM NaCl, 1 mM TCEP and 2% EtOH with and without 570 μM compound I-1 ([…]). Dynamic Light Scattering (DLS) data for PAC1 and PAC1-compound I-1 complexes were collected prior to SAXS data collection to confirm that all the samples are highly pure and suitable for data collection. The data collection was performed on a 3-pinhole camera (S-MAX3000; Rigaku Americas, The Woodlands, Tex.) equipped with a Rigaku MicroMaxp002 microfocus sealed tube (Cu Kα radiation at 1.54 Å) and a Confocal Max-Flux (CMF) optics system operating at 40 W (Rigaku). Scattering data were recorded using a 200 mm multiwire two-dimensional detector. The data for both samples and buffer were collected for 3 h for each sample within the range of 0.008≤s≤0.26 Å-1 and processed according to the method previously described, where s=4π sin θ/λ (Patel et al., 2011, Patel et al., 2010, Patel et al., 2012). The Normalized Spatial Discrepancy (NSD) of the non-liganded and liganded PAC1 models were 0.6 and 1.0 respectively.

colitis in IL10−/− mice = experiment: Mouse colitis model (IL10 knock-out); type: in vivo; settings: colitic IL10−/− mice
Description: Mouse Colitis Model. Colitis was induced in 6-8 week old BALB/cIL10−/−mice by administering the colonic contents of conventional C57BL/6 mice diluted 1:10 in PBS by oral gavage. Mouse weights and fecal consistencies were monitored and colitis allowed to develop for 6 weeks. Ethanol (Vehicle) and compound I-1 (3 mg/kg) was diluted in cage drinking water and dexamethasone (0.4 mg/kg) was administered every 2 days by oral gavage for 3 weeks. At the end of the dosing period, proximal, medial and distal colon sections were collected for paraffin embedding or stored in RNALater (Invitrogen, Mississauga, ON) for RNA extraction. Slides were prepared, stained with hematoxylin and eosin, and mounted by the UBC Department of Pathology and Laboratory Medicine Histochemistry Facility. Specimens were assigned pathological scores by two, independent, blinded investigators according to a method described by Madsen et al (Madsen et al., 2001). In brief, colonic inflammation was graded using a 4-point scale, scoring 0-3 for each of submucosal edema, immune cell infiltration, goblet cell ablation, and integrity of the epithelial layer. For analysis of mRNA expression, colon sections were homogenized and total RNA extracted as described above and analyzed by real time PCR using gene specific primers for IL17, CCL2, and GAPDH (normalization control).
To show in vivo anti-inflammatory effect of the compounds of the present disclosure, exemplary compound I-1 was administered to IL-10 knock-out mouse model of colitis (Keubler 2015). IL10 knock-out mice develop colitis when colonized with normal gut flora because IL10 is needed to temper the host immune response to intestinal commensal bacteria (Keubler 2015, Kuhn 1993). Colitis was initiated in IL10−/−mice by inoculating them with the freshly isolated colon contents of normal, specific pathogen free mice and allowed inflammation to develop for 6 weeks (Sydora 2003). Mice were then treated for 3 weeks with vehicle, 2 mg/kg compound I-1, or 0.4 mg/kg dexamethasone (anti-inflammatory steroidal drug used as positive control) prior to colon tissue collection for analyses. Hematoxylin and eosin stained sections were prepared from the proximal, mid and distal colons of mice, as well as from mice not inoculated with flora (no colitis group) (FIG. 8A).

MM.1S cells = experiment: MM.1S tumour model in NOD/SCID mice; type: in vivo, mouse; settings: NOD/SCID mice bearing MM.1S tumours; administered through drinking water
Description: The IBD model mice were dosed with 2 or 3 mg/kg of compounds of the present disclosure, for example compound I-1. The MM model mice were dosed with about 20 to about 50 mg/kg of compounds of the present disclosure, for example compound I-1. The appropriate amount of 5 mg/mL PBS solution with 5% v/v Cremophore EL/5% v/v ethanol as prepared above was diluted into the mice's drinking water.
MM.1S cells expressing firefly luciferase were injected along with Matrigel basement membrane into the upper flank of NOD/SCID mice and allowed to establish for two weeks. Compound I-1 or vehicle (n=4) were administered through drinking water (as described in General Methods).

DDIT4 = DDIT4 expression in macrophages; type: cell-based; settings: compound by itself
[1] = 3 weeks treatment, RT-qPCR relative to GAPDH

Structure (SMILES)	overall conformation of PAC1 on binding (SAXS) (PAC1)	reduction of histological and molecular markers of colon inflammation, compared with dexamethasone (colitis in IL10−/− mice)	pathology scores of colon sections (colitis in IL10−/− mice; 3 weeks treatment, 2 mg/kg compound I-1 or 0.4 mg/kg dexamethasone, vs vehicle)	CCL2 mRNA in colon (colitis in IL10−/− mice; [1])	IL17 mRNA in colon (colitis in IL10−/− mice; [1])	tumour mass (bioluminescence imaging) (MM.1S cells)	DDIT4 expression (DDIT4)
Cc1cc(O)cc2c1C1(C)CCC3C(C)(C)CCCC3(C)C1C2 (stereo not shown) [Compound I-1]	results in a change in its overall conformation	as effective as dexamethasone	significantly lower pathology scores	significantly reduced	significantly reduced	effectively reduces tumour mass	
CC12CCC3C(C)(C)C(N)CCC3(C)C1Cc1cc(O)cc(O)c12 (stereo not shown) [Compound I-2]							by itself able to induce DDIT4 expression
